For 23 molecules, Ki results are on record in patent US20190085024A1, “Alpha-Ketoamide Inhibitors Of Cysteine Proteases” (Phelix Therapeutics, priority 2017, published 2019).

In one test the target is Cathepsin L (Homo sapiens, UniProt P07711). The test can be described thus: Cathepsin L enzyme assay. The test is classed as biochemical. The conditions noted are these: Ki by Morrison equation; pH 5.5, substrate Z-Phe-Arg-Amc; read-out: Cat L. The source says: Two wells contained DMSO only for controls.
Velocity was converted to μM/sec.

A further test has as its target Calpain. Kind of test: Calpain enzyme assay. As to conditions: Ki by Morrison equation; pH 7.5, 5 mM CaCl2. The test is classed as biochemical.

pKi: −log10 of the molar value.

Cathepsin L, sequence (P07711 114-333, species assumed): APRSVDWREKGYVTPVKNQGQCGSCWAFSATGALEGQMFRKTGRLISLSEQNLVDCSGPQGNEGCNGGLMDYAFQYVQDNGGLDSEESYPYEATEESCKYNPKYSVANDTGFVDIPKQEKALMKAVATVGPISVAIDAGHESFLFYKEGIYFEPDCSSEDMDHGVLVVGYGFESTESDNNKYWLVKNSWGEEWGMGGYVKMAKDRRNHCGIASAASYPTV

Consider `CCC(C)C(NC(=O)C(CC(C)C)NC(=O)OCc1ccccc1)C(=O)C(=O)N1CC(C(=O)NCc2ccc3ccccc3c2)C1` (stereo not shown) [PHELIX363, benzyl (4-methyl-1-((4-methyl-1-(3-((naphthalen-2-ylmethyl)carbamoyl)azetidin-1-yl)-1,2-dioxohexan-3-yl)amino)-1-oxopentan-2-yl)carbamate], for which the pKi at Cathepsin L is 7.71; on Calpain, 6.75.
With `CC[C@H](C)C(NC(=O)[C@H](CC#N)NC(=O)Cc1ccccc1)C(=O)C(=O)NCC(=O)N[C@@H](Cc1ccc2ccccc2c1)C(N)=O` (stereo partly shown) [PHELIX337, N-(2-((1-amino-3-(naphthalen-2-yl)-1-oxopropan-2-yl)amino)-2-oxoethyl)-3-(3-cyano-2-(2-phenylacetamido)propanamido)-4-methyl-2-oxohexanamide], the results for the pKi at Cathepsin L and on Calpain were 8.07 and 6.65, respectively.
Regarding `CCC(C)C(NC(=O)C(Cc1ccccc1)NC(=O)Cc1ccccc1)C(=O)C(=O)NCC(=O)NC(Cc1ccc2ccccc2c1)C(N)=O` (stereo not shown) [PHELIX321, N-(2-((1-amino-3-(naphthalen-2-yl)-1-oxopropan-2-yl)amino)-2-oxoethyl)-4-methyl-2-oxo-3-(3-phenyl-2-(2-phenylacetamido)propanamido)hexanamide], the pKi on Cathepsin L is more than 10.00; at Calpain it was 7.08.
Regarding `CCC(C)C(NC(=O)C(CC(C)C)NC(=O)OCc1ccccc1)C(=O)C(=O)NC(CCCNC(N)=O)C(N)=O` (stereo not shown) [PHELIX340, benzyl (1-((1-((1-amino-1-oxo-5-ureidopentan-2-yl)amino)-4-methyl-1,2-dioxohexan-3-yl)amino)-4-methyl-1-oxopentan-2-yl)carbamate], the pKi at Cathepsin L was 8.41; at Calpain, 7.77.
Turning to `CCC(C)C(NC(=O)C(CC(C)C)NC(=O)NCc1ccccc1)C(=O)C(=O)NCC(=O)NC(Cc1ccc2ccccc2c1)C(N)=O` (stereo not shown) [PHELIX334, N-(2-((1-amino-3-(naphthalen-2-yl)-1-oxopropan-2-yl)amino)-2-oxoethyl)-3-(2-(3-benzylureido)-4-methylpentamido)-4-methyl-2-oxohexanamide], the figures for the pKi at Cathepsin L and at Calpain were 9.37 and 9.17, respectively.
With `CCC(C)C(NC(=O)C(CC(C)C)NC(=O)OCc1ccccc1)C(=O)C(=O)NC(CCC(N)=O)C(=O)NC(Cc1ccc2ccccc2c1)C(N)=O` (stereo not shown) [PHELIX317, benzyl (1-((1-((5-amino-1-((1-amino-3-(naphthalen-2-yl)-1-oxopropan-2-yl)amino)-1,5-dioxopentan-2-yl)amino)-4-methyl-1,2-dioxohexan-3-yl)amino)-4-methyl-1-oxopentan-2-yl)carbamate], the pKi at Cathepsin L is 8.86; on Calpain, 7.70.
The matching figures for `CCC(C)C(NC(=O)C(CC(C)C)NC(=O)OCc1ccccc1)C(=O)C(=O)NCC(=O)NC(Cc1ccncc1)C(N)=O` (stereo not shown) [PHELIX357, benzyl (1-((1-((2-((1-amino-1-oxo-3-(pyridin-4-yl)propan-2-yl)amino)-2-oxoethyl)amino)-4-methyl-1,2-dioxohexan-3-yl)amino)-4-methyl-1-oxopentan-2-yl)carbamate]: 8.36 and 7.81.
Regarding `CCC(C)C(NC(=O)C(Cc1c[nH]cn1)NC(=O)Cc1ccccc1)C(=O)C(=O)NCC(=O)NC(Cc1ccc2ccccc2c1)C(N)=O` (stereo not shown) [PHELIX308, 3-(3-(1H-imidazol-4-yl)-2-(2-phenylacetamido)propanamido)-N-(2-((1-amino-3-(naphthalen-2-yl)-1-oxopropan-2-yl)amino)-2-oxoethyl)-4-methyl-2-oxohexanamide], the values for the pKi on Cathepsin L and at Calpain were 6.02 and 5.82, respectively.
With `CCC(C)C(NC(=O)C(CC(C)C)NC(=O)OCc1ccccc1)C(=O)C(=O)NC(CC(N)=O)C(=O)NC(Cc1ccc2ccccc2c1)C(N)=O` (stereo not shown) [PHELIX316, benzyl (1-((1-((4-amino-1-((1-amino-3-(naphthalen-2-yl)-1-oxopropan-2-yl)amino)-1,4-dioxobutan-2-yl)amino)-4-methyl-1,2-dioxohexan-3-yl)amino)-4-methyl-1-oxopentan-2-yl)carbamate], the pKi at Cathepsin L is 8.48; on Calpain, 8.10.
Taken in the same sequence, the figures for `CCC(C)C(C(=O)C(=O)NCC(=O)NC(Cc1ccc2ccccc2c1)C(N)=O)N(C)C(=O)C(CC(C)C)NC(=O)OCc1ccccc1` (stereo not shown) [PHELIX292, benzyl (1-((1-((2-((1-amino-3-(naphthalen-2-yl)-1-oxopropan-2-yl)amino)-2-oxoethyl)amino)-4-methyl-1,2-dioxohexan-3-yl)(methyl)amino)-4-methyl-1-oxopentan-2-yl)carbamate] were 7.43 and 5.37.
Taken in the same sequence, the figures for `CCC(C)C(NC(=O)C(CC(C)C)NC(=O)OCc1ccccc1)C(=O)C(=O)NCC(=O)NC(Cc1ccc(OC)cc1)C(N)=O` (stereo not shown) [PHELIX355, benzyl (1-((1-((2-((1-amino-3-(4-methoxyphenyl)-1-oxopropan-2-yl)amino)-2-oxoethyl)amino)-4-methyl-1,2-dioxohexan-3-yl)amino)-4-methyl-1-oxopentan-2-yl)carbamate] were 8.80 and 8.77.
In the case of `CCC(C)C(NC(=O)C(CC1CC1)NC(=O)Cc1ccccc1)C(=O)C(=O)NCC(=O)NC(Cc1ccc2ccccc2c1)C(N)=O` (stereo not shown) [PHELIX332, N-(2-((1-amino-3-(naphthalen-2-yl)-1-oxopropan-2-yl)amino)-2-oxoethyl)-3-(3-cyclopropyl-2-(2-phenylacetamido)propanamido)-4-methyl-2-oxohexanamide], the pKi at Cathepsin L was 8.94; on Calpain it was 8.63.
As to `CCC(C)C(NC(=O)C(CC(C)C)NC(=O)OCc1ccccc1)C(=O)C(=O)NC(Cc1cc2ccccc2[nH]1)C(N)=O` (stereo not shown) [PHELIX343, benzyl (1-((1-((1-amino-3-(1H-indol-2-yl)-1-oxopropan-2-yl)amino)-4-methyl-1,2-dioxohexan-3-yl)amino)-4-methyl-1-oxopentan-2-yl)carbamate], the pKi was 8.45 on Cathepsin L and 7.47 at Calpain.
Take `CC[C@H](C)C(NC(=O)[C@H](CC(C)C)NC(=O)OCc1ccccc1)C(=O)C(=O)N[C@@H](CCCNC(=N)N)C(N)=O` (stereo partly shown) [PHELIX290, benzyl (1-((1-((1-amino-5-guanidino-1-oxopentan-2-yl)amino)-4-methyl-1,2-dioxohexan-3-yl)amino)-4-methyl-1-oxopentan-2-yl)carbamate]: the pKi at Cathepsin L was 8.57; at Calpain it was 8.14.
Consider `CCC(C)C(NC(=O)C(CC(C)C)NC(=O)OCc1ccccc1)C(=O)C(=O)NC1(C(=O)NC(Cc2ccc3ccccc3c2)C(N)=O)CC1` (stereo not shown) [PHELIX298, benzyl (1-((1-((1-((1-amino-3-(naphthalen-2-yl)-1-oxopropan-2-yl)carbamoyl)cyclopropyl)amino)-4-methyl-1,2-dioxohexan-3-yl)amino)-4-methyl-1-oxopentan-2-yl)carbamate], for which the pKi on Cathepsin L was 6.50; at Calpain it was 5.59.
Taken in the same sequence, the figures for `CCC(C)C(NC(=O)C(CC(C)C)NC(=O)OCc1ccccc1)C(=O)C(=O)N(C)CC(=O)NC(Cc1ccc2ccccc2c1)C(N)=O` (stereo not shown) [PHELIX291, benzyl (1-((1-((2-((1-amino-3-(naphthalen-2-yl)-1-oxopropan-2-yl)amino)-2-oxoethyl)(methyl)amino)-4-methyl-1,2-dioxohexan-3-yl)amino)-4-methyl-1-oxopentan-2-yl)carbamate] were 5.23 and less than 5.00.
As for `CCC(C)C(NC(=O)C(CC(C)C)NC(=O)OCc1ccccc1)C(=O)C(=O)NC(CC(N)=O)Cc1ccccc1` (stereo not shown) [PHELIX326, benzyl (1-((1-((4-amino-4-oxo-1-phenylbutan-2-yl)amino)-4-methyl-1,2-dioxohexan-3-yl)amino)-4-methyl-1-oxopentan-2-yl)carbamate], the figures for the pKi on Cathepsin L and on Calpain were 7.22 and 6.15, respectively.
As for `CCC(C)C(NC(=O)C(CC(C)C)NC(=O)OCc1ccccc1)C(=O)C(=O)NCC(=O)NC(Cc1ccc(C#N)cc1)C(N)=O` (stereo not shown) [PHELIX350, benzyl (1-((1-((2-((1-amino-3-(4-cyanophenyl)-1-oxopropan-2-yl)amino)-2-oxoethyl)amino)-4-methyl-1,2-dioxohexan-3-yl)amino)-4-methyl-1-oxopentan-2-yl)carbamate], the pKi at Cathepsin L was 8.38; at Calpain, 8.46.
For the molecule `CCC(C)C(NC(=O)C(CC(C)C)NC(=O)OCc1ccccc1)C(=O)C(=O)NC(Cc1ccc2ccccc2c1)C(=O)NC1CC1` (stereo not shown) [PHELIX361, benzyl (1-((1-((1-(cyclopropylamino)-3-(naphthalen-2-yl)-1-oxopropan-2-yl)amino)-4-methyl-1,2-dioxohexan-3-yl)amino)-4-methyl-1-oxopentan-2-yl)carbamate], the figures for the pKi on Cathepsin L and on Calpain were 7.62 and 7.38, respectively.
Take `CCC(C)C(NC(=O)C(CC(C)C)NC(=O)Cc1cccnc1)C(=O)C(=O)NCC(=O)NC(Cc1ccc2ccccc2c1)C(N)=O` (stereo not shown) [PHELIX312, N-(2-((1-amino-3-(naphthalen-2-yl)-1-oxopropan-2-yl)amino)-2-oxoethyl)-4-methyl-3-(4-methyl-2-(2-(pyridin-3-yl)acetamido)pentanamido)-2-oxohexanamide]: the pKi on Cathepsin L is 8.58; on Calpain it was 9.09.
Taken in the same sequence, the figures for `CCC(C)C(NC(=O)C(CC(C)C)NC(=O)Nc1ccccc1)C(=O)C(=O)NCC(=O)NC(Cc1ccc2ccccc2c1)C(N)=O` (stereo not shown) [PHELIX335, N-(2-((1-amino-3-(naphthalen-2-yl)-1-oxopropan-2-yl)amino)-2-oxoethyl)-4-methyl-3-(4-methyl-2-(3-phenylureido)pentanamido)-2-oxohexanamide] were more than 9.82 and 8.84.
Taken in the same sequence, the figures for `CC[C@H](C)C(NC(=O)[C@H](CC(C)C)NC(=O)OCc1ccccc1)C(=O)C(=O)N[C@@H](Cc1cccnc1)C(N)=O` (stereo partly shown) [PHELIX344] were 7.69 and 7.57.
Consider `CCC(C)C(NC(=O)C(CC(C)C)NC(=O)C(Cc1ccccc1)NC(=O)Cc1ccncc1)C(=O)C(=O)NC(CCCNC(=N)N)C(N)=O` (stereo not shown) [PHELIX346, N-(1-amino-5-guanidino-1-oxopentan-2-yl)-4-methyl-3-(4-methyl-2-(3-phenyl-2-(2-(pyridin-4-yl)acetamido)propanamido)pentanamido)-2-oxohexanamide], for which the pKi at Cathepsin L is 8.48; on Calpain, 8.77.
